Tests used:
Assay type in all cases: cell-based
[1] = system: irNSC neurospheres from human fibroblasts IMR90; assay: Expansion of irNSC neurospheres with or without Fasudil in expansion medium (FIG. 9); details: expansion medium with Fasudil vs without; Day 15
Procedure: FIG. 9: Generation of a batch of irNSC neurospheres for expansion and characterization. 3.6 million human fibroblasts IMR90 were trypsinized and infected in a small volume with: Sox2, Bmi1, nestin GFP reporter using the induction medium (N2B27 with FGF, EGF 30 ng/ml BDNF 20 ng/ml) supplemented with Fasudil 10 μM and Polybrene 4 μg/ml. From Day 4 to Day 8: The GFP+ neurospheres bigger than 50 μm were harvested and further used for expansion. Half of the neurospheres have been expanded using the expansion medium (N2B27 with FGF, EGF 30 ng/ml BDNF 20 ng/ml) with Fasudil and the other half without Fasudil.
The irNSCs have a typical NSC morphology and were Sox2 and Nestin positive (FIG. 10).
Expansion Medium: N2B27 supplemented with human EGF (Peprotech) 30 ng/ml, human FGF2 30 ng/ml (Peprotech), human BDNF (Roche) 20 ng/ml, or
1. […]

[2] = system: human fibroblasts; assay: Reprogramming of human fibroblasts to irNSCs with or without Fasudil in induction medium, neurosphere count (FIG. 6); details: Fasudil added to induction medium, nestin reporter lentivirus; day 3
Source text: The method can be illustrated by reference to FIG. 1 herein, which depicts a method according to the invention being used for converting human fibroblasts to neural stem cells (NSCs). In this method human fibroblast were trypsinized at day 0, counted and their viability determined. Between 1.0×10^5-3.0×10^5 trypsinized fibroblasts were then resuspended in the induction medium and the combination of genes delivered as lentiviruses. At the induction medium polybrene (hexadimethrine bromide) was added to increase the efficiency of the lentiviruses transduction. The infection was performed for 15 minutes in an eppendorf tube. In combination with the genes, a human Nestin GFP reporter was used. Nestin is a well known marker expressed specifically in NSCs. In the nestin reporter the fluorescent protein GFP is under expression of the human nestin promoter (FIG. 2), therefore it allows an easy screen for induced reprogrammed neural stem cells (irNSCs) GFP+.
The infected cells were plated in tissue culture plates using a concentration of 10000-30000 cells/cm^2 in the appropriate volume of induction medium. At day 1 the total induction medium was renewed. It was possible to identify some irNSC GFP+ (FIG. 3) with a clear change in morphology compared to the human fibroblasts. The irNSCs GFP+ acquired a bipolar and elongated morphology with a more condensed cytoplasm, typical of NSCs. […]

[3] = system: Human fibroblasts IMR90; assay: Generation of GFP+ irNSC neurospheres, Fasudil versus Balanol-like-324 compound in induction medium (FIG. 11)
Procedure: FIG. 11: Comparison of Fasudil versus Balanol-like-324 compound stimulation to generate irNSC neurospheres. Human fibroblasts IMR90 were trypsinized and infected in a small volume with: Sox2, Bmi1, nestin GFP reporter using the induction medium (NeuroCult® NS-A Proliferation Kit (Human, StemCells Technologies) with FGF, EGF BDNF 20 ng/ml; Heparin 2 μg/ml; Polybrene 4 μg/ml) supplemented with Fasudil 10 μM (hatched graph) or Balanol-like-324 compound 2 μM (black graph). Fibroblasts were plated in a normal tissue culture plate at a concentration of 10000-30000 cells/cm^2. Day 1: Media change with fresh induction medium. Day 4: The GFP+ neurospheres bigger than 50 μm were counted.
Induction Medium: N2B27 (N2B27 is a 1:1 mixture of DMEM/F12 (Gibco, Paisley, UK) supplemented with N2 and B27 (both from Gibco) supplemented with human EGF (Peprotech) 30 ng/ml, human FGF2 30 ng/ml (Peprotech), human BDNF (Roche) 20 ng/ml and Fasudil (Calbiochem) 10 μM or Balanol-like-324 compound (N-{(3R,4R)-4-[4-(2-Fluoro-6-hydroxy-3-methoxy-benzoyl)-benzoylamino]-azepan-3-yl}-4-hydroxy-3,5-dimethyl-benzamide) 2 μM.
1. Generation of the irNSCs: • 200.000 IMR90 human fibroblasts infected with the lentiviruses for different genes combination (multiplicity of infection (M.O.I.) used for each single lentivirus 30) and the reporter nestin GFP lentivirus (M.O.I. used 10) in an eppendorf with 300 μl induction medium with polybrene (hexadimethrine bromide, Sigma) 4 μg/ml. • Incubate at room temperature for 15 min. • Plate the 300 μl in 1.7 ml induction medium in a well of a 6-well-plate tissue treated • Day 1, renew the 2 ml of induction medium/each well • Day 3, harvest of the neurospheres collecting carefully the 2 ml with the floating spheres • Expand the neurospheres2. […]

[4] = system: Human fibroblasts IMR90; assay: Pre-treatment of human fibroblasts with Valproic Acid before infection, yield of GFP+ irNSC neurospheres (FIG. 12); details: VPA 1 mM pre-treatment 48 hours vs without; Day 7; n=3
Procedure: FIG. 12: Pre-treatment of human fibroblasts with Valproic Acid (VPA) improves the yield of GFP+ irNSC neurospheres. Human fibroblasts IMR90 were pre-treated for 48 hours with or without the HDAC inhibitor Valproic Acid (2-propyl-pentanoic acid, monosodium salt) (1 mM) prior infection with: Sox2, Bmi1, nestin GFP reporter. Induction medium (NeuroCult® NS-A Proliferation Kit (Human, StemCells Technologies) with FGF, EGF BDNF 20 ng/ml; Heparin 2 μg/ml; Balanol-like-324 2 μM). Day 7: The Neurospheres bigger than 50 μm were counted (Panel A) and the average number of GFP+ irNSC per neurosphere is reported (Panel B). Representative pictures for the irNSCs neuropheres generated with the VPA pre-treatment (Panel C).
To increase the yield of irNSCs, human fibroblasts were pretreated with or without the HDAC inhibitor Valproic Acid (VPA, 2-propyl-pentanoic acid, monosodium salt). Towards this end, the human fibroblasts were incubated in DMEM/F12 supplemented with FBS 10% and L-glutamine supplemented with 1 mM VPA prior to infection (FIG. 12).

## O=S(=O)(c1cccc2cnccc12)N1CCCNCC1 [Fasudil, 1-(5-Isoquinolinesulfonyl)homopiperazine]
[1]
  neurosphere morphology: better morphology and clear and sharp borders
[2]
  generation of neurospheres: generation of neurospheres (around 50 μm)

## COc1ccc(O)c(C(=O)c2ccc(C(=O)N[C@@H]3CCCNC[C@H]3NC(=O)c3cc(C)c(O)c(C)c3)cc2)c1F [Balanol-like-324 compound, N-{(3R,4R)-4-[4-(2-Fluoro-6-hydroxy-3-methoxy-benzoyl)-benzoylamino]-azepan-3-yl}-4-hydroxy-3,5-dimethyl-benzamide]
[3]; Balanol-like-324 2 μM vs Fasudil 10 μM, Day 4, STDEV, n=3
  reproducibility of neurosphere generation versus Fasudil: better reproducibility
[3]; Balanol-like-324 2 μM vs Fasudil 10 μM, Sox2, Bmi1, nestin GFP reporter, Day 4, n=3
  increase in efficiency of the neurospheres generation (GFP+ neurospheres bigger than 50 μm) versus Fasudil: ~1.9 fold
[3]; FIG. 11, Rock kinase inhibitor in induction medium
  yield of GFP+ neurospheres: increases the yield

## CCCC(CCC)C(=O)[O-].[Na+] [VPA, 2-propyl-pentanoic acid, monosodium salt]
[4]
  increase in number of GFP+ irNSCs per neurosphere: 2.1 fold
  number of neurospheres bigger than 50 μm: did not significantly affect

Reference: patent publication US20160369234A1, “CONVERSION OF SOMATIC CELLS TO INDUCED REPROGRAMMED NEURAL STEM CELLS (IRNSCS)” (Hoffmann-La Roche Inc., priority 2010, published 2016)
